Laboratory results reported in PubChem BioAssay (NCI).
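Grown in 96-well plates, cells were treated for 48 hours with each compound at five concentrations. Insufficient inhibition: endpoint recorded as highest concentration tested. TGI marks complete inhibition of growth.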

test system: NCI-H226 lung; assay: growth of human tumour cells (NCI), 48 h

**Q.** How did the TGI turn out when `COc1ccc2nccc(/C=C/c3ccc(N(C)C)cc3)c2c1` was run?
**A.** > 10 µM

**Q.** How did the TGI turn out when `CC(CN(C)C)C(C#N)(c1ccccc1)c1ccccc1` (stereo not drawn) was run?
**A.** > 100 µM

**Q.** For `COC(=O)C1=C(OC(=O)/C(=C/c2ccccc2)c2ccc([N+](=O)[O-])cc2)C(C(=O)OC)[C@@]2(O)[C@@H](C(=O)OC)[C@H](C)C[C@@H]1[C@@H]2C(=O)OC` (stereo partly drawn), which TGI is on record?
**A.** > 100 µM

test system: NCI-H23 lung; assay: growth of human tumour cells (NCI), 48 h

**Q.** How did the TGI turn out when `O=C(O)/C(=C/c1ccccc1)c1ccccc1` was run?
**A.** > 100 µM

**Q.** With `CCOC(=O)C1CSCCSC1` as the compound, how does the TGI read?
**A.** > 100 µM

**Q.** Which TGI does the source give for `COc1ccc2nccc(/C=C/c3ccc(N(C)C)cc3)c2c1` here?
**A.** > 10 µM

**Q.** Which TGI does the source give for `CC(CN(C)C)C(C#N)(c1ccccc1)c1ccccc1` (stereo not drawn) here?
**A.** > 100 µM

**Q.** With `COC(=O)C1=C(OC(=O)/C(=C/c2ccccc2)c2ccc([N+](=O)[O-])cc2)C(C(=O)OC)[C@@]2(O)[C@@H](C(=O)OC)[C@H](C)C[C@@H]1[C@@H]2C(=O)OC` (stereo partly drawn) as the compound, how does the TGI read?
**A.** > 100 µM

test system: NCI-H460 lung; assay: growth of human tumour cells (NCI), 48 h

**Q.** How did the TGI turn out when `O=C(O)/C(=C/c1ccccc1)c1ccccc1` was run?
**A.** > 100 µM

**Q.** Which TGI does the source give for `CCOC(=O)C1CSCCSC1` here?
**A.** 57.6 µM

**Q.** How did the TGI turn out when `COc1ccc2nccc(/C=C/c3ccc(N(C)C)cc3)c2c1` was run?
**A.** > 10 µM

**Q.** For `CC(CN(C)C)C(C#N)(c1ccccc1)c1ccccc1` (stereo not drawn), which TGI is on record?
**A.** > 100 µM

**Q.** With `COC(=O)C1=C(OC(=O)/C(=C/c2ccccc2)c2ccc([N+](=O)[O-])cc2)C(C(=O)OC)[C@@]2(O)[C@@H](C(=O)OC)[C@H](C)C[C@@H]1[C@@H]2C(=O)OC` (stereo partly drawn) as the compound, how does the TGI read?
**A.** > 100 µM

test system: NCI-H522 lung; assay: growth of human tumour cells (NCI), 48 h

**Q.** `O=C(O)/C(=C/c1ccccc1)c1ccccc1` was tested. Which TGI did it give?
**A.** > 100 µM

**Q.** For `CCOC(=O)C1CSCCSC1`, which TGI is on record?
**A.** > 100 µM

**Q.** With `COc1ccc2nccc(/C=C/c3ccc(N(C)C)cc3)c2c1` as the compound, how does the TGI read?
**A.** > 10 µM

**Q.** Which TGI does the source give for `CC(CN(C)C)C(C#N)(c1ccccc1)c1ccccc1` (stereo not drawn) here?
**A.** > 100 µM

**Q.** How did the TGI turn out when `COC(=O)C1=C(OC(=O)/C(=C/c2ccccc2)c2ccc([N+](=O)[O-])cc2)C(C(=O)OC)[C@@]2(O)[C@@H](C(=O)OC)[C@H](C)C[C@@H]1[C@@H]2C(=O)OC` (stereo partly drawn) was run?
**A.** > 100 µM

test system: NCI/ADR-RES ovarian; assay: growth of human tumour cells (NCI), 48 h

**Q.** For `O=C(O)/C(=C/c1ccccc1)c1ccccc1`, which TGI is on record?
**A.** > 100 µM

**Q.** With `CCOC(=O)C1CSCCSC1` as the compound, how does the TGI read?
**A.** > 100 µM

**Q.** How did the TGI turn out when `COc1ccc2nccc(/C=C/c3ccc(N(C)C)cc3)c2c1` was run?
**A.** > 10 µM

**Q.** Which TGI does the source give for `CC(CN(C)C)C(C#N)(c1ccccc1)c1ccccc1` (stereo not drawn) here?
**A.** > 100 µM

**Q.** How did the TGI turn out when `COC(=O)C1=C(OC(=O)/C(=C/c2ccccc2)c2ccc([N+](=O)[O-])cc2)C(C(=O)OC)[C@@]2(O)[C@@H](C(=O)OC)[C@H](C)C[C@@H]1[C@@H]2C(=O)OC` (stereo partly drawn) was run?
**A.** > 100 µM

test system: OVCAR-3 ovarian; assay: growth of human tumour cells (NCI), 48 h

**Q.** How did the TGI turn out when `O=C(O)/C(=C/c1ccccc1)c1ccccc1` was run?
**A.** > 100 µM

**Q.** How did the TGI turn out when `COc1ccc2nccc(/C=C/c3ccc(N(C)C)cc3)c2c1` was run?
**A.** > 10 µM

**Q.** `CC(CN(C)C)C(C#N)(c1ccccc1)c1ccccc1` (stereo not drawn) was tested. Which TGI did it give?
**A.** > 100 µM

**Q.** For `COC(=O)C1=C(OC(=O)/C(=C/c2ccccc2)c2ccc([N+](=O)[O-])cc2)C(C(=O)OC)[C@@]2(O)[C@@H](C(=O)OC)[C@H](C)C[C@@H]1[C@@H]2C(=O)OC` (stereo partly drawn), which TGI is on record?
**A.** > 100 µM

test system: OVCAR-4 ovarian; assay: growth of human tumour cells (NCI), 48 h

**Q.** Which TGI does the source give for `O=C(O)/C(=C/c1ccccc1)c1ccccc1` here?
**A.** > 100 µM

**Q.** `COc1ccc2nccc(/C=C/c3ccc(N(C)C)cc3)c2c1` was tested. Which TGI did it give?
**A.** > 10 µM

**Q.** With `CC(CN(C)C)C(C#N)(c1ccccc1)c1ccccc1` (stereo not drawn) as the compound, how does the TGI read?
**A.** > 100 µM

**Q.** For `COC(=O)C1=C(OC(=O)/C(=C/c2ccccc2)c2ccc([N+](=O)[O-])cc2)C(C(=O)OC)[C@@]2(O)[C@@H](C(=O)OC)[C@H](C)C[C@@H]1[C@@H]2C(=O)OC` (stereo partly drawn), which TGI is on record?
**A.** > 100 µM

test system: OVCAR-5 ovarian; assay: growth of human tumour cells (NCI), 48 h

**Q.** With `O=C(O)/C(=C/c1ccccc1)c1ccccc1` as the compound, how does the TGI read?
**A.** > 100 µM

**Q.** Which TGI does the source give for `COc1ccc2nccc(/C=C/c3ccc(N(C)C)cc3)c2c1` here?
**A.** > 10 µM

**Q.** For `CC(CN(C)C)C(C#N)(c1ccccc1)c1ccccc1` (stereo not drawn), which TGI is on record?
**A.** > 100 µM

**Q.** For `COC(=O)C1=C(OC(=O)/C(=C/c2ccccc2)c2ccc([N+](=O)[O-])cc2)C(C(=O)OC)[C@@]2(O)[C@@H](C(=O)OC)[C@H](C)C[C@@H]1[C@@H]2C(=O)OC` (stereo partly drawn), which TGI is on record?
**A.** > 100 µM

test system: OVCAR-8 ovarian; assay: growth of human tumour cells (NCI), 48 h

**Q.** `O=C(O)/C(=C/c1ccccc1)c1ccccc1` was tested. Which TGI did it give?
**A.** > 100 µM

**Q.** For `CCOC(=O)C1CSCCSC1`, which TGI is on record?
**A.** > 100 µM

**Q.** Which TGI does the source give for `COc1ccc2nccc(/C=C/c3ccc(N(C)C)cc3)c2c1` here?
**A.** > 10 µM

**Q.** `CC(CN(C)C)C(C#N)(c1ccccc1)c1ccccc1` (stereo not drawn) was tested. Which TGI did it give?
**A.** > 100 µM

**Q.** With `COC(=O)C1=C(OC(=O)/C(=C/c2ccccc2)c2ccc([N+](=O)[O-])cc2)C(C(=O)OC)[C@@]2(O)[C@@H](C(=O)OC)[C@H](C)C[C@@H]1[C@@H]2C(=O)OC` (stereo partly drawn) as the compound, how does the TGI read?
**A.** > 100 µM

test system: PC-3 prostate; assay: growth of human tumour cells (NCI), 48 h

**Q.** How did the TGI turn out when `O=C(O)/C(=C/c1ccccc1)c1ccccc1` was run?
**A.** > 100 µM

**Q.** Which TGI does the source give for `CCOC(=O)C1CSCCSC1` here?
**A.** > 100 µM

**Q.** `COc1ccc2nccc(/C=C/c3ccc(N(C)C)cc3)c2c1` was tested. Which TGI did it give?
**A.** > 10 µM

**Q.** `CC(CN(C)C)C(C#N)(c1ccccc1)c1ccccc1` (stereo not drawn) was tested. Which TGI did it give?
**A.** > 100 µM

**Q.** Which TGI does the source give for `COC(=O)C1=C(OC(=O)/C(=C/c2ccccc2)c2ccc([N+](=O)[O-])cc2)C(C(=O)OC)[C@@]2(O)[C@@H](C(=O)OC)[C@H](C)C[C@@H]1[C@@H]2C(=O)OC` (stereo partly drawn) here?
**A.** > 100 µM

test system: RPMI-8226 leukemia; assay: growth of human tumour cells (NCI), 48 h

**Q.** Which TGI does the source give for `O=C(O)/C(=C/c1ccccc1)c1ccccc1` here?
**A.** > 100 µM

**Q.** How did the TGI turn out when `COc1ccc2nccc(/C=C/c3ccc(N(C)C)cc3)c2c1` was run?
**A.** > 10 µM

**Q.** How did the TGI turn out when `CC(CN(C)C)C(C#N)(c1ccccc1)c1ccccc1` (stereo not drawn) was run?
**A.** > 100 µM

**Q.** With `COC(=O)C1=C(OC(=O)/C(=C/c2ccccc2)c2ccc([N+](=O)[O-])cc2)C(C(=O)OC)[C@@]2(O)[C@@H](C(=O)OC)[C@H](C)C[C@@H]1[C@@H]2C(=O)OC` (stereo partly drawn) as the compound, how does the TGI read?
**A.** > 100 µM

test system: RXF 393 renal; assay: growth of human tumour cells (NCI), 48 h

**Q.** Which TGI does the source give for `O=C(O)/C(=C/c1ccccc1)c1ccccc1` here?
**A.** > 100 µM

**Q.** For `CCOC(=O)C1CSCCSC1`, which TGI is on record?
**A.** > 100 µM

**Q.** With `COc1ccc2nccc(/C=C/c3ccc(N(C)C)cc3)c2c1` as the compound, how does the TGI read?
**A.** > 10 µM

**Q.** Which TGI does the source give for `CC(CN(C)C)C(C#N)(c1ccccc1)c1ccccc1` (stereo not drawn) here?
**A.** > 100 µM

**Q.** `COC(=O)C1=C(OC(=O)/C(=C/c2ccccc2)c2ccc([N+](=O)[O-])cc2)C(C(=O)OC)[C@@]2(O)[C@@H](C(=O)OC)[C@H](C)C[C@@H]1[C@@H]2C(=O)OC` (stereo partly drawn) was tested. Which TGI did it give?
**A.** > 100 µM

test system: SF-268 CNS; assay: growth of human tumour cells (NCI), 48 h

**Q.** Which TGI does the source give for `O=C(O)/C(=C/c1ccccc1)c1ccccc1` here?
**A.** > 100 µM

**Q.** For `CCOC(=O)C1CSCCSC1`, which TGI is on record?
**A.** > 100 µM

**Q.** `COc1ccc2nccc(/C=C/c3ccc(N(C)C)cc3)c2c1` was tested. Which TGI did it give?
**A.** > 10 µM

**Q.** With `CC(CN(C)C)C(C#N)(c1ccccc1)c1ccccc1` (stereo not drawn) as the compound, how does the TGI read?
**A.** > 100 µM

**Q.** For `COC(=O)C1=C(OC(=O)/C(=C/c2ccccc2)c2ccc([N+](=O)[O-])cc2)C(C(=O)OC)[C@@]2(O)[C@@H](C(=O)OC)[C@H](C)C[C@@H]1[C@@H]2C(=O)OC` (stereo partly drawn), which TGI is on record?
**A.** > 100 µM

test system: SF-295 CNS; assay: growth of human tumour cells (NCI), 48 h

**Q.** How did the TGI turn out when `O=C(O)/C(=C/c1ccccc1)c1ccccc1` was run?
**A.** > 100 µM

**Q.** For `CCOC(=O)C1CSCCSC1`, which TGI is on record?
**A.** > 100 µM

**Q.** With `COc1ccc2nccc(/C=C/c3ccc(N(C)C)cc3)c2c1` as the compound, how does the TGI read?
**A.** > 10 µM

**Q.** How did the TGI turn out when `CC(CN(C)C)C(C#N)(c1ccccc1)c1ccccc1` (stereo not drawn) was run?
**A.** > 100 µM

**Q.** With `COC(=O)C1=C(OC(=O)/C(=C/c2ccccc2)c2ccc([N+](=O)[O-])cc2)C(C(=O)OC)[C@@]2(O)[C@@H](C(=O)OC)[C@H](C)C[C@@H]1[C@@H]2C(=O)OC` (stereo partly drawn) as the compound, how does the TGI read?
**A.** > 100 µM

test system: SF-539 CNS; assay: growth of human tumour cells (NCI), 48 h

**Q.** How did the TGI turn out when `O=C(O)/C(=C/c1ccccc1)c1ccccc1` was run?
**A.** > 100 µM

**Q.** With `COc1ccc2nccc(/C=C/c3ccc(N(C)C)cc3)c2c1` as the compound, how does the TGI read?
**A.** > 10 µM

**Q.** Which TGI does the source give for `CC(CN(C)C)C(C#N)(c1ccccc1)c1ccccc1` (stereo not drawn) here?
**A.** > 100 µM

**Q.** For `COC(=O)C1=C(OC(=O)/C(=C/c2ccccc2)c2ccc([N+](=O)[O-])cc2)C(C(=O)OC)[C@@]2(O)[C@@H](C(=O)OC)[C@H](C)C[C@@H]1[C@@H]2C(=O)OC` (stereo partly drawn), which TGI is on record?
**A.** > 100 µM
